Measured values reported in US10669261B2, “Heteroarylhydroxypyrimidinones as agonists of the APJ receptor” (BRISTOL-MYERS SQUIBB COMPANY, priority 2015, dated 2020).

Each molecule was assayed against T1, human APJ receptor (Homo sapiens, UniProt P35414) (assay: Intracellular cAMP accumulation assay (APJ hcAMP, HTRF)). Conditions: HEK293 cells stably expressing human APJ receptor; inhibition of forskolin-mediated cAMP production; stated at end of example; read-out: Human APJ cAMP Potency Range.
T1 construct: expressed in transfected cells
T1 sequence (P35414 1-380): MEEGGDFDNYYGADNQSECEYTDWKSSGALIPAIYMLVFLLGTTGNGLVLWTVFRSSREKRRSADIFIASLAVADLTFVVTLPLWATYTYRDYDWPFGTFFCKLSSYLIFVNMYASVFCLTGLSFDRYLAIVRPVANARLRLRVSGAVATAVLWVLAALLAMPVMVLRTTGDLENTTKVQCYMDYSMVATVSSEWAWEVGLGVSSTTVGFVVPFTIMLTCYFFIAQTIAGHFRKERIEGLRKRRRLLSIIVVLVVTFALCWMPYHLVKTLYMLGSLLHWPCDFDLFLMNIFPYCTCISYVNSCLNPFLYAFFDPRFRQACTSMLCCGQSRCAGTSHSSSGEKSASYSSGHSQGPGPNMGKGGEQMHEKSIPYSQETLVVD
Assay type: cell-based
Method: Intracellular cAMP Accumulation Assay
HEK293 cells stably expressing human APJ receptor were used to assess the activity of compounds. Cultured cells were detached and resuspended in the cAMP Homogeneous Time-Resolved Fluorescence (HTRF) assay buffer (Cisbio cat; #62AM4PEJ). The assay was performed in 384-well assay plates (Perkin-Elmer; cat #6008289) according to assay protocol provided by the manufacturer. Serial dilutions of a compound together with assay buffer containing […] IBMX and 2 μM forskolin were added to each well containing 5,000 cells and incubated for 30 minutes at room temperature. Subsequently, cAMP D2 reagent was added in the lysis buffer followed by the EuK antibody (Cisbio; cat #62AM4PEJ) and incubated for 60 min. The fluorescence emission ratio was measured using fluorometer. The intracellular cAMP concentrations (compound-stimulated inhibition of forskolin-mediated cAMP production) were calculated by extrapolation from a standard curve using known cAMP concentrations. The EC50 values were obtained by fitting the data to a sigmoidal concentration-response curve with variable slope. The maximal achievable inhibition of forskolin-induced cAMP levels (Ymax) for each compound was expressed as relative percentage of inhibition attained using pyroglutamated apelin-13 ((Pyr1)apelin-13) peptide, which was set to 100%.
The examples disclosed below were tested in the APJ in vitro assays described above and were found having human APJ cyclic AMP (hcAMP) activity. The EC50 value of each compound is presented at the end of the example description.
The biological activity of the exemplified compounds of this invention determined by the assay described above is shown at the end of each example.

| SMILES | EC50 [nM] |
| --- | --- |
| CCCCc1nc(=O)c(-c2nnc(Cc3noc4ccccc34)o2)c(O)n1-c1c(C2CC2)cccc1C1CC1 [Example 27, 5-(5-(Benzo[d]isoxazol-3-ylmethyl)-1,3,4-oxadiazol-2-yl)-2-butyl-1-(2,6-dicyclopropylphenyl)-6-hydroxypyrimidin-4(1H)-one] | 0.01 to 10 |
| CCCCc1nc(=O)c(-c2nnc(Cc3noc4ccccc34)o2)c(O)n1-c1c(C#N)cccc1C#N [Example 28, 2-(5-(5-(Benzo[d]isoxazol-3-ylmethyl)-1,3,4-oxadiazol-2-yl)-2-butyl-6-hydroxy-4-oxopyrimidin-1 (4H)-yl)isophthalonitrile] | 10 to 100 |
| CCCCc1nc(=O)c(-c2nnc(Cc3ccc(Cl)cc3)o2)c(O)n1-c1c(OC2CC2)cccc1OC1CC1 [Example 29, 2-butyl-5-(5-(4-chlorobenzyl)-1,3,4-oxadiazol-2-yl)-1-(2,6-dicyclopropoxyphenyl)-6-hydroxypyrimidin-4(1H)-one] | 10 to 100 |
| CCCCc1nc(O)c(-c2cnn(Cc3ccccc3)c2)c(=O)n1-c1c(OC)cccc1OC [Example 31, 5-(1-benzyl-1H-pyrazol-4-yl)-2-butyl-3-(2,6-dimethoxyphenyl)-6-hydroxypyrimidin-4(3H)-one] | 0.01 to 10 |
| CCOCc1nc(=O)c(-c2nnc(Cc3noc4ccccc34)o2)c(O)n1-c1c(OC)cccc1OC [Example 33, 5-(5-(benzo[d]isoxazol-3-ylmethyl)-1,3,4-oxadiazol-2-yl)-1-(2,6-dimethoxyphenyl)-6-hydroxy-2-(ethoxymethyl)pyrimidin-4(1H)-one] | 0.01 to 10 |

Same assay, conditions: Table 1; HEK293 cells stably expressing human APJ receptor; read-out: hAPJ cAMP EC50 Potency range

| SMILES | EC50 [nM] |
| --- | --- |
| CCCCc1nc(=O)c(-c2nnc(Cc3noc4ccccc34)o2)c(O)n1-c1c(OC(C)C)cccc1OC(C)C [Example 24, 5-[5-(1,2-benzoxazol-3-ylmethyl)-1,3,4-oxadiazol-2-yl]-1-[2,6-bis(propan-2-yloxy)phenyl]-2-butyl-6-hydroxy-1,4-dihydropyrimidin-4-one] | 100 to 300 |
| CCCCc1nc(=O)c(-c2nnc(Cc3csc(C)n3)o2)c(O)n1-c1c(OCC)cccc1OCC [Example 25, 2-butyl-1-(2,6-diethoxyphenyl)-6-hydroxy-5-{5-[(2-methyl-1,3-thiazol-4-yl)methyl]-1,3,4-oxadiazol-2-yl}-1,4-dihydropyrimidin-4-one] | 0.01 to 10 |
| CCCCc1nc(=O)c(-c2nnc(Cc3ccc(Cl)cc3)o2)c(O)n1-c1c(OCC)cccc1OCC [Example 26, 2-butyl-5-{5-[(4-chlorophenyl)methyl]-1,3,4-oxadiazol-2-yl}-1-(2,6-diethoxyphenyl)-6-hydroxy-1,4-dihydropyrimidin-4-one] | 0.01 to 10 |
| CCCCc1nc(=O)c(-c2nnc(Cc3noc4ccccc34)o2)c(O)n1-c1c(OC2CC2)cccc1OC1CC1 [Example 30, 5-[5-(1,2-benzoxazol-3-ylmethyl)-1,3,4-oxadiazol-2-yl]-2-butyl-1-(2,6-dicyclopropoxyphenyl)-6-hydroxy-1,4-dihydropyrimidin-4-one] | 0.01 to 10 |
| CCCCc1nc(O)c(-c2cnn(Cc3ccc(Cl)cc3)c2)c(=O)n1-c1c(OC)cccc1OC [Example 32, 2-butyl-5-{1-[(4-chlorophenyl)methyl]-1H-pyrazol-4-yl}-3-(2,6-dimethoxyphenyl)-6-hydroxy-3,4-dihydropyrimidin-4-one] | 0.01 to 10 |
| COc1cccc(OC)c1-n1c(COC(C)C)nc(=O)c(-c2nnc(Cc3noc4ccccc34)o2)c1O [Example 34, 5-[5-(1,2-benzoxazol-3-ylmethyl)-1,3,4-oxadiazol-2-yl]-1-(2,6-dimethoxyphenyl)-6-hydroxy-2-[(propan-2-yloxy)methyl]-1,4-dihydropyrimidin-4-one] | 0.01 to 10 |
| CCOCc1nc(=O)c(-c2nnc(Cc3noc4ccccc34)o2)c(O)n1-c1c(CC)cccc1CC [Example 35, 5-[5-(1,2-benzoxazol-3-ylmethyl)-1,3,4-oxadiazol-2-yl]-1-(2,6-diethylphenyl)-2-(ethoxymethyl)-6-hydroxy-1,4-dihydropyrimidin-4-one] | 0.01 to 10 |
